Data from ChEMBL document CHEMBL3045494, “Inhibitory effect and structureactivity relationship of some Biginelli-type pyrimidines against HSV-1” (Med Chem Res, 2013).
Calls of active or inactive are those of the source.

Columns and labels:
Human alphaherpesvirus 1 = experiment: Antiviral activity against Human herpesvirus 1 strain KOS infected Vero cells after 72 hr by plaque reduction assay; type: functional, organism-based
[1] = Selectivity index, ratio of CC25 for African green monkey Vero cells to IC25 for Herpes simplex virus 1 KOS; type: toxicity, cell-based; conditions: read-out: Selectivity Index
[2] = Therapeutic index, ratio of CC50 for African green monkey Vero cells to IC50 for Herpes simplex virus 1 KOS; type: cell-based; conditions: read-out: Ratio CC50/IC50
[3] = (§1) Cytotoxicity against Chlorocebus aethiops (African green monkey) Vero cells after 72 hr by XTT assay; type: cell-based; conditions: chlorocebus sabaeus, Vero cells
Vero = experiment: as §1; type: cell-based; conditions: chlorocebus sabaeus, vero, 72 h
[4] = Human alphaherpesvirus 1, KOS, Vero, 72 h
[5] = Human alphaherpesvirus 1, KOS, Vero, 72 h, read-out: IC50

Row | SMILES | IC50 (Human alphaherpesvirus 1; [5]) [µM] | IC50 (Human alphaherpesvirus 1; vero) | IC25 (Human alphaherpesvirus 1; [4]) [µM] | selectivity ratio [1] | selectivity ratio [2] | CC50 at 72 h [3] [µM] | CC25 (Vero) | IC25 (Human alphaherpesvirus 1) | CC50 (Vero)
1 | CCOC(=O)C1=C(C)NC(=S)NC1c1ccc(Br)cc1 (stereo unspecified) | 122 |  | 87.3 | 0.1 | 0.31 | 38.9 | 9.3 µM |  | 
2 | CC1=C(C(=O)Nc2cccnc2)C(c2cccs2)NC(=O)N1 (stereo unspecified) |  | Not Active |  | < 1 | < 1 | > 100 | > 100 µM | inactive | 
3 | COC(=O)C1=C(C)NC(=S)NC1c1cccs1 (stereo unspecified) | > 100 |  | 92.5 | > 1.1 | > 1 |  | Non-toxic |  | Non-toxic
4 | CCOC(=O)C1=C(C)N(C)C(=O)NC1c1ccc(F)cc1 (stereo unspecified) |  | Not Active | 99 | > 1 | 1 |  | Non-toxic |  | Non-toxic
5 | CC1=C(C(=O)OC(C)C)C(c2cccs2)NC(S)=N1 (stereo unspecified) | 28 |  | 8.5 | 0.6 | 1.9 | 53.9 | 5.7 µM |  | 
6 | CC1=C(C(=O)Oc2ccccc2)C(c2ccccc2)NC(=S)N1 (stereo unspecified) | > 100 |  | 93.2 | > 1.1 | > 1 |  | Non-toxic |  | Non-toxic
7 | CC1=C(C(=O)NC2CCCCC2)C(c2ccccc2)NC(=O)N1 (stereo unspecified) | > 100 |  | 0.2 | 38 | > 1 | > 100 | 7.6 µM |  | 
8 | CCOC(=O)C1=C(C)NC(=O)NC1c1ccc(F)cc1 (stereo unspecified) |  | Not Active |  | 1 | 1 |  | Non-toxic | inactive | Non-toxic
9 | CCOC(=O)C1=C(C)NC(=O)NC1c1cnc(CS)n1NCc1ccccc1 (stereo unspecified) |  | Not Active |  | 1 | 1 |  | Non-toxic | inactive | Non-toxic
10 | CCOC(=O)C1=C(C)N=C(S)NC1c1cccs1 (stereo unspecified) | > 100 |  | 14 | 6.2 |  | 100 | 87.3 µM |  | 
11 | COC(=O)C1=C(C)N(C)C(=O)NC1c1ccc(F)cc1 (stereo unspecified) |  | Not Active |  | 1 | 1 |  | Non-toxic | inactive | Non-toxic
12 | CCOC(=O)C1=C(C)NC(=O)NC1c1ccc(Br)cc1 (stereo unspecified) |  |  |  |  |  |  | 67.5 µM |  | 
13 | CCOC(=O)C1=C(C)NC(=O)NC1c1ccccc1 (stereo unspecified) |  | Not Active | 133 | > 1 | 1 |  | Non-toxic |  | Non-toxic
14 | CCCOC(=O)C1=C(C)NC(=S)NC1c1cccs1 (stereo unspecified) | 7.9 |  | 1.5 | 0.3 | 2.9 | 23.6 | 0.5 µM |  | 
15 | CC1=C(C(=O)OC(C)(C)C)C(c2cccs2)NC(=O)N1 (stereo unspecified) |  | Not Active |  | < 1 | < 1 | > 100 | 76.7 µM | inactive | 
16 | COC(=O)C1=C(C)NC(=S)NC1c1ccc(Br)cc1 (stereo unspecified) | 82.7 |  | 67.7 | 0.8 | 1.22 | 97.2 | 69.1 µM |  | 
17 | CC1=C(C(=O)OCC(C)C)C(c2cccs2)NC(S)=N1 (stereo unspecified) | 1.8 |  | 0.6 | 30.6 | 48.6 | 87.5 | 18.4 µM |  | 
18 | CCCC1NC(=O)NC(C)=C1C(=O)OCC (stereo unspecified) |  | Not Active |  | 1 | 1 |  | Non-toxic | inactive | Non-toxic

Second part, led by results:

Row | IC50 (Human alphaherpesvirus 1; [5]) [µM] | IC50 (Human alphaherpesvirus 1; vero) | SMILES | IC25 (Human alphaherpesvirus 1; [4]) [µM] | selectivity ratio [1] | selectivity ratio [2] | CC50 at 72 h [3] [µM] | CC25 (Vero) | IC25 (Human alphaherpesvirus 1) | CC50 (Vero)
19 | 13 |  | CC1=C(C(=O)Nc2ccccc2Cl)C(c2ccc(Cl)cc2)NC(=O)N1 (stereo unspecified) | 0.16 | > 625 | > 6.6 |  | Non-toxic |  | Non-toxic
20 | > 100 |  | CC1=C(C(=O)Nc2ccc(Cl)cc2)C(c2cnc(CS)n2Nc2ccccc2)NC(=O)N1 (stereo unspecified) | 37 | 1.4 | > 1 | > 100 | 53.9 µM |  | 
21 | 59.8 |  | CC1=C(C(=O)Nc2ccccc2Cl)C(c2ccccc2Br)NC(=O)N1 (stereo unspecified) | 13.9 | 4.2 | > 1.6 | > 100 | 58.8 µM |  | 
22 | > 100 |  | CC1=C(C(=O)Nc2ccccc2Cl)C(c2ccccc2Cl)NC(=S)N1 (stereo unspecified) | 0.7 | 35 | > 1 | > 100 | 24.5 µM |  | 
23 |  | Not Active | CC1=C(C(=O)Nc2ccccc2Cl)C(c2cnc(CS)n2NCc2ccccc2)NC(=O)N1 (stereo unspecified) |  | < 1 | < 1 | > 100 | > 100 µM | inactive | 
24 |  | Not Active | CC1=C(C(=O)Nc2cccc(Cl)c2)C(c2cccs2)NC(=O)N1 (stereo unspecified) |  | < 1 | < 1 | > 100 | 87.9 µM | inactive | 
25 | 32.7 |  | CC1=C(C(=O)Nc2ccccc2Cl)C(c2ccc(Br)cc2)NC(=O)N1 (stereo unspecified) | 0.09 | 936 | > 3 | > 100 | 84.3 µM |  | 
26 | 43.3 |  | CC1=C(C(=O)Nc2ccc(Br)cc2)C(c2ccccc2)NC(=O)N1 (stereo unspecified) | 0.2 | 356 | > 2.3 | > 100 | 71.3 µM |  | 
27 | > 100 |  | CC1=C(C(=O)Nc2ccccc2Cl)C(C(C)c2ccccc2)NC(=O)N1 (stereo unspecified) | 21.3 | 0.07 | < 1 | 91.5 | 1.7 µM |  | 
28 | 46.1 |  | CC1=C(C(=O)Nc2ccccc2Cl)C(c2cccc([N+](=O)[O-])c2)NC(=O)N1 (stereo unspecified) | 0.1 | > 1000 | > 2.1 |  | Non-toxic |  | Non-toxic
29 | 81.5 |  | CC1=C(C(=O)Nc2ccccc2Cl)C(c2cccs2)NC(=O)N1 (stereo unspecified) | 25.2 | 3.9 | > 1.2 | > 100 | 98.9 µM |  | 
30 |  | Not Active | COC(=O)C1=C(C)NC(=O)NC1c1ccc(F)cc1 (stereo unspecified) |  | 1 | 1 |  | Non-toxic | inactive | Non-toxic
31 | 67.4 |  | CC1=C(C(=O)Nc2ccccc2Cl)C(c2ccccc2Cl)NC(=O)N1 (stereo unspecified) | 0.1 | > 1000 | > 1.4 |  | Non-toxic |  | Non-toxic
32 | > 100 |  | CC1=C(C(=O)Nc2ccc(F)cc2)C(c2ccccc2)NC(=O)N1 (stereo unspecified) | 0.9 | 48.6 | > 1 | > 100 | 43.8 µM |  | 
33 |  | Not Active | CC1=C(C(=O)Nc2ccccc2Cl)C(c2cnc(CS)n2Nc2ccccc2)NC(=O)N1 (stereo unspecified) |  | < 1 | < 1 | > 100 | 97.7 µM | inactive | 
34 | 59.7 |  | CC1=C(C(=O)Nc2ccc(Cl)cc2)C(c2cccs2)NC(=O)N1 (stereo unspecified) | 11.7 | 7.1 | > 1.6 | > 100 | 83.2 µM |  | 
35 | > 100 |  | CC1=C(C(=O)Nc2cccc(Cl)c2)C(c2cnc(CS)n2Nc2ccccc2)NC(=O)N1 (stereo unspecified) | 13.7 | 5.1 | < 0.9 | 98.6 | 71.1 µM |  | 
36 | > 100 |  | COc1cccc(C2NC(=O)NC(C)=C2C(=O)Nc2ccccc2Cl)c1 (stereo unspecified) | 9.1 | 5 | > 1 | > 100 | 45.6 µM |  | 
37 | 95.4 |  | CC1=C(C(=O)Nc2ccccc2Cl)C(c2cccc(Br)c2)NC(=O)N1 (stereo unspecified) | 1.6 | 34.1 | > 1 | > 100 | 54.7 µM |  | 
38 | 81.9 |  | CC1=C(C(=O)Nc2ccccc2Cl)C(c2ccc([N+](=O)[O-])cc2)NC(=O)N1 (stereo unspecified) | 0.6 | > 167 | > 1.2 |  | Non-toxic |  | Non-toxic
39 | 89.7 |  | CC1=C(C(=O)Oc2ccccc2)C(c2ccccc2)NC(=O)N1 (stereo unspecified) | 10.4 | 9.4 | > 1.1 | > 100 | 98 µM |  | 
40 | 67 |  | CC1=C(C(=O)Nc2cccc(Cl)c2)C(c2cnc(CS)n2NCc2ccccc2)NC(=O)N1 (stereo unspecified) | 53.8 | 1.8 | > 1.4 | > 100 | 100 µM |  | 
41 | 63.6 |  | COc1ccc(C2NC(=O)NC(C)=C2C(=O)Nc2ccccc2Cl)cc1 (stereo unspecified) | 0.7 | 25.1 | > 1.5 | > 100 | 17.6 µM |  | 
42 | 10.5 |  | CC1=C(C(=O)Nc2ccccc2Cl)C(c2ccc(C)cc2)NC(=O)N1 (stereo unspecified) | 0.08 | > 1250 | > 10 | > 100 | > 100 µM |  | 
